Literature values in US20060122127A1, “Methods for reducing the side effects associated with mirtzapine treatment” (Cypress Bioscience, Inc., priority 2004, published 2006).

Tests used:
[1] = 100-200 mg/d, patients with neuropathic pain
[2] = obese patients
[3] = test system: tonic extension seizures induced by maximal electroshock; conditions: animals
[4] = test system: clonic seizures induced by subcutaneous pentylenetetrazol; conditions: animals

SMILES | patients with weight gain of greater than or equal to 7% of body weight (controlled studies (placebo 0%)) [%] | patients reporting appetite increase (controlled studies (placebo 2%)) [%] | patients whose subjective ratings of pain improved by at least 50% [1] [%] | loss of body weight ([2]; 32 week extension phase (placebo 1.8% loss)) [%] | reduction of body weight ([2]; following 16 weeks of therapy (placebo 1% loss)) [%] | anticonvulsant activity against tonic extension seizures [3] | anticonvulsant activity against clonic seizures [4]
CN(C)CCC=C1c2ccccc2CCc2ccccc21 [amitriptyline] | 5.9 | 6 | – | – | – | – | –
NS(=O)(=O)Cc1noc2ccccc12 [zonisamide, 1,2-benzisoxazole-3-methanesulfonamide] | – | – | 59 | 9.4 | 6 | effective | ineffective
